For seven compounds, GI50 and TGI results are on record in PubChem BioAssay (NCI).

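These data come from cells grown in 96-well plates and exposed to compound for 48 hours at five concentrations. Here, GI50 denotes the concentration required for 50% inhibition of growth. Definition used: TGI = concentration required for complete inhibition of growth.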 Where only a bound is given, the exact number is not on record here.

Holding throughout (test): growth of human tumour cells (NCI), 48 h
Experiment [1] concerns HCC-2998 colon.
Experiment [2] relates to KM12 colon.
Experiment [3] concerns TK-10 renal.
Experiment [4] has as its system IGROV1 ovarian.
Experiment [5] deals with RPMI-8226 leukemia.
Experiment [6] relates to MDA-MB-231 breast.
The subject of experiment [7] is BT-549 breast.
The test system of experiment [8] is HOP-62 NSCLC.
The subject of experiment [9] is OVCAR-3 ovarian.
For experiment [10], the system named is MCF7 breast.

In the case of `CN1CC[C@@H](NC(=O)Nc2ccc(C#N)cc2)C[C@@H]1c1nc2ccccc2[nH]1`, the GI50 in experiment [1] was above 41300 nM; in experiment [2], above 100000 nM; in [3], above 100000 nM; in experiment [4], above 100000 nM; in experiment [5], above 100000 nM; in experiment [6], above 100000 nM. Further, the GI50 was above 100000 nM in experiment [7], above 100000 nM in [8], above 100000 nM in experiment [9] and 98800 nM in experiment [10]. Also, the TGI was above 56.4 µM in experiment [1]; above 100 µM in [2]; above 100 µM in [3]; above 100 µM in experiment [4]; above 100 µM in experiment [5]; above 100 µM in experiment [6]. For the same compound, the TGI in [7], in experiment [8], in experiment [9] and in [10] was above 100 µM each time.
Take `Nc1n[nH]c2cc(F)c([C@@H]3Nc4ccc5[nH]ncc5c4[C@H]4C5CCC(C5)[C@@H]34)cc12` (stereo not given in full): the GI50 in experiment [1] was 177 nM; in experiment [2], 180 nM; in experiment [3] it was 3460 nM; in [4] it was 218 nM; in [5], 173 nM; in experiment [6], 200 nM. The GI50 is 141 nM in experiment [7], 222 nM in experiment [8], 167 nM in experiment [9] and 115 nM in experiment [10]. For the same compound, the TGI was 1.93 µM in experiment [1]; 4.01 µM in experiment [2]; above 50 µM in [3]; 15.6 µM in experiment [4]; 1.82 µM in [5]; 7.86 µM in experiment [6]. Further, the TGI in experiment [7] was determined as 2.59 µM; in experiment [8], 9.12 µM; in [9], 6.35 µM; in experiment [10], 9.18 µM.
For the compound `COc1cccc(-c2nc(-c3ccc(NC(=O)OC(C)C)cc3)[nH]c2-c2ccnc(Br)c2)c1`, the GI50 in experiment [1] is 2710 nM; in experiment [2], 2410 nM; in experiment [3], 3610 nM; in experiment [4], 3540 nM; in [5], 389 nM; in [6] it was 3850 nM. The GI50 in [7] is 2190 nM; in experiment [8], 2920 nM; in experiment [9], 2830 nM; in [10], 1590 nM. Also, the TGI is above 100 µM in [1]; above 100 µM in [2]; above 100 µM in experiment [3]; above 100 µM in [4]; 2.21 µM in experiment [5]; above 100 µM in experiment [6]. For the same compound, the TGI was above 100 µM in experiment [7], above 100 µM in experiment [8], above 100 µM in [9] and 8.15 µM in [10].
For `COc1ccc(C2[C@@H](c3ccccc3)C(=O)N2c2cc(OC)c(OC)c(OC)c2)cc1F` (stereo not given in full), the GI50 in experiment [1] was 39.4 nM; in experiment [2], 33.1 nM; in experiment [3], 1680 nM; in experiment [4], 42.8 nM; in [5], 41.3 nM; in experiment [6], 45.2 nM. Also, the GI50 in experiment [7] was 26.6 nM; in [8], 37.9 nM; in [9], 28 nM; in [10], 29.6 nM. Moreover, the TGI in [1] was above 100 µM; in experiment [2], above 100 µM; in experiment [3] it was above 100 µM; in experiment [4] it was above 100 µM; in experiment [5], 4 µM; in experiment [6] it was above 100 µM. Moreover, the TGI in [7] is 0.09 µM; in experiment [8] it was above 100 µM; in [9], 0.077 µM; in experiment [10], above 100 µM.
With `O=C(CCCSc1nc(-c2ccccc2)cc(-c2ccccc2)n1)NO`, the GI50 in [1] is 2050 nM; in [2] it was 2640 nM; in [3], 669 nM; in [4], 1500 nM; in experiment [5] it was 808 nM; in experiment [6] it was 1990 nM. The GI50 is 2660 nM in experiment [7], 671 nM in experiment [8], 1600 nM in experiment [9] and 2100 nM in experiment [10]. The TGI was found to be 6.95 µM in experiment [1]; 12.9 µM in [2]; 19.1 µM in [3]; 9.13 µM in experiment [4]; 9.38 µM in experiment [5]; 7.72 µM in experiment [6]. Also, the TGI came out at 17 µM in experiment [7], 4.4 µM in [8], 6.16 µM in experiment [9] and 14.3 µM in [10].
As for `C=C1C(=O)O[C@H]2[C@H]1CC/C(COC(=O)NCc1ccc(Cn3c(=O)sn(-c4ccc(OC)cc4)c3=O)cc1)=C\CC[C@@]1(C)O[C@@H]21`, the GI50 in experiment [1] is 10400 nM; in experiment [2], 3750 nM; in [3], 1910 nM; in [4] it was 2850 nM; in experiment [5] it was 2010 nM; in experiment [6], 1970 nM. For the same compound, the GI50 in experiment [7] was 4370 nM; in experiment [8] it was 13200 nM; in [9], 1610 nM; in [10], 1770 nM. Also, the TGI in [1] was found to be 25.5 µM; in experiment [2] it was 14 µM; in experiment [3] it was 3.49 µM; in experiment [4], 8.04 µM; in experiment [5], 4.52 µM; in experiment [6], 4.11 µM. For the same compound, the TGI in [7] worked out at 16.3 µM; in [8], 26.9 µM; in experiment [9] it was 3.04 µM; in experiment [10] it was 3.63 µM.
For the compound `COc1ccc2nc(NC(=O)CSc3nnc4n3S(=O)(=O)c3ccccc3N4c3ccccc3)sc2c1`, the GI50 in [1] was above 100000 nM; in experiment [2], above 100000 nM; in experiment [3] it was above 100000 nM; in experiment [4] it was 5470 nM; in [5], 1450 nM; in [6], 23700 nM. Also, the GI50 in experiment [7] was above 100000 nM; in experiment [8] it was 2140 nM; in [9] it was above 100000 nM; in experiment [10], above 100000 nM. The TGI in [1] is above 100 µM; in [2] it was above 100 µM; in [3], above 100 µM; in [4] it was 55.1 µM; in experiment [5], above 100 µM; in [6] it was above 100 µM. Also, the TGI in [7], in [8], in experiment [9] and in experiment [10] was above 100 µM each time.
